{"source": "patent US6403343B2", "about": "“Method of producing a taxane-type diterpene and a method of obtaining cultured cells which produce the taxane-type dilterpene at a high rate” (Mitsui Chemicals, Inc., priority 1993, dated 2002)", "key": {"[1]": {"tested_on": "cultured cells of Taxus baccata LINN", "details": "3 mM in fresh medium, continuous culture", "experimental": "The amount of the taxol contained in the cells and the medium were measured in the same manner as that used in Example 1."}, "[2]": {"tested_on": "cultured cells of Taxus baccata LINN", "details": "2 mM in medium", "protocol": "The procedure of Example 78 was carried out except that the nutrition source was not added midway."}, "[3]": {"tested_on": "cultured cells of Taxus baccata LINN", "assay": "Growth rate and taxane yield, 21-day shake culture of Taxus baccata cells with heavy metal compound, amine, antiethylene agent or Ethrel added", "type": "cell-based"}, "[4]": {"details": "nutrition source added continuously day 2-14, 21 days"}, "[5]": {"details": "nutrition source not added midway, 21 days"}, "[6]": {"details": "2×10^−4 M added 5 times at 4 days' intervals from day 0, total 10^−3 M"}, "[7]": {"details": "10^−1 M added at start, 21 days"}, "[8]": {"details": "10^−2 M added at start, 21 days"}, "[9]": {"details": "10^−3 M added at start, 21 days"}, "[10]": {"details": "10^−3 M added on 7th day, 14 more days"}, "[11]": {"details": "10^−3 M added on 14th day, 7 more days"}, "[12]": {"details": "10^−3 M added on 18th day, 3 more days"}, "[13]": {"details": "10^−3 M at start + methyl jasmonate 10^−4 M on 14th day"}, "[14]": {"details": "10^−3 M at start + methyl jasmonate 10^−4 M on 14th day, oxygen 10% in the gas phase"}, "[15]": {"details": "10^−3 M at start, oxygen 10% in the gas phase"}, "[16]": {"details": "10^−4 M added at start, 21 days"}, "[17]": {"details": "10^−5 M added at start, 21 days"}, "[18]": {"details": "10^−6 M added at start, 21 days"}, "[19]": {"details": "10^−7 M added at start, 21 days"}, "[20]": {"details": "10^−8 M added at start, 21 days"}, "[21]": {"details": "10^−9 M added at start, 21 days"}}, "note": "Where two headings read alike, the source gives them in different places."}
{"smiles": "O=S([O-])([O-])=S.[Ag+].[Ag+]", "note": "[silver thiosulfate, [Ag(S2O3)2]^3−]", "values": [{"measurement": "productivity of taxol", "setting": "[1]; stationary state", "result": 8.8, "unit": "mg/L/day"}, {"measurement": "taxol produced", "setting": "[1]; stationary state of 60 days", "result": 525, "unit": "mg"}, {"measurement": "yield of cells", "setting": "[2]; [4]", "result": 38, "unit": "g dried weight/l"}, {"measurement": "yield of taxol from cells", "setting": "[2]; [4]", "result": 31, "unit": "mg/L"}, {"measurement": "yield of taxol from medium", "setting": "[2]; [4]", "result": 89, "unit": "mg/L"}, {"measurement": "yield of taxol total", "setting": "[2]; [4]", "result": 125, "unit": "mg/L"}, {"measurement": "yield of cells", "setting": "[2]; [5]", "result": 22, "unit": "g dried weight/l"}, {"measurement": "yield of taxol from cells", "setting": "[2]; [5]", "result": 33, "unit": "mg/L"}, {"measurement": "yield of taxol from medium", "setting": "[2]; [5]", "result": 27, "unit": "mg/L"}, {"measurement": "yield of taxol total", "setting": "[2]; [5]", "result": 60, "unit": "mg/L"}, {"measurement": "growth rate", "setting": "[3]; 1 M added at start, 21 days", "result": 1.2, "unit": "times"}, {"measurement": "total yield of taxane", "setting": "[3]; 1 M added at start, 21 days", "result": 0.64, "unit": "mg/L"}, {"measurement": "yield of baccatin III", "setting": "[3]; 1 M added at start, 21 days", "result": 0.08, "unit": "mg/L"}, {"measurement": "yield of cephalomannine", "setting": "[3]; 1 M added at start, 21 days", "result": 0.36, "unit": "mg/L"}, {"measurement": "yield of taxol", "setting": "[3]; 1 M added at start, 21 days", "result": 0.20, "unit": "mg/L"}, {"measurement": "growth rate", "setting": "[3]; [6]", "result": 2.4, "unit": "times"}, {"measurement": "total yield of taxane", "setting": "[3]; [6]", "result": 32.36, "unit": "mg/L"}, {"measurement": "yield of baccatin III", "setting": "[3]; [6]", "result": 4.15, "unit": "mg/L"}, {"measurement": "yield of cephalomannine", "setting": "[3]; [6]", "result": 7.27, "unit": "mg/L"}, {"measurement": "yield of taxol", "setting": "[3]; [6]", "result": 20.94, "unit": "mg/L"}, {"measurement": "growth rate", "setting": "[3]; [7]", "result": 1.9, "unit": "times"}, {"measurement": "total yield of taxane", "setting": "[3]; [7]", "result": 3.78, "unit": "mg/L"}, {"measurement": "yield of baccatin III", "setting": "[3]; [7]", "result": 0.26, "unit": "mg/L"}, {"measurement": "yield of cephalomannine", "setting": "[3]; [7]", "result": 2.15, "unit": "mg/L"}, {"measurement": "yield of taxol", "setting": "[3]; [7]", "result": 1.37, "unit": "mg/L"}, {"measurement": "growth rate", "setting": "[3]; [8]", "result": 2.3, "unit": "times"}, {"measurement": "total yield of taxane", "setting": "[3]; [8]", "result": 12.02, "unit": "mg/L"}, {"measurement": "yield of baccatin III", "setting": "[3]; [8]", "result": 0.72, "unit": "mg/L"}, {"measurement": "yield of cephalomannine", "setting": "[3]; [8]", "result": 5.50, "unit": "mg/L"}, {"measurement": "yield of taxol", "setting": "[3]; [8]", "result": 5.80, "unit": "mg/L"}, {"measurement": "growth rate", "setting": "[3]; [9]", "result": 2.7, "unit": "times"}, {"measurement": "total yield of taxane", "setting": "[3]; [9]", "result": 58.99, "unit": "mg/L"}, {"measurement": "yield of baccatin III", "setting": "[3]; [9]", "result": 27.90, "unit": "mg/L"}, {"measurement": "yield of cephalomannine", "setting": "[3]; [9]", "result": 5.96, "unit": "mg/L"}, {"measurement": "yield of taxol", "setting": "[3]; [9]", "result": 25.13, "unit": "mg/L"}, {"measurement": "growth rate", "setting": "[3]; [10]", "result": 2.2, "unit": "times"}, {"measurement": "total yield of taxane", "setting": "[3]; [10]", "result": 27.21, "unit": "mg/L"}, {"measurement": "yield of baccatin III", "setting": "[3]; [10]", "result": 11.71, "unit": "mg/L"}, {"measurement": "yield of cephalomannine", "setting": "[3]; [10]", "result": 4.86, "unit": "mg/L"}, {"measurement": "yield of taxol", "setting": "[3]; [10]", "result": 10.64, "unit": "mg/L"}, {"measurement": "growth rate", "setting": "[3]; [11]", "result": 2.5, "unit": "times"}, {"measurement": "total yield of taxane", "setting": "[3]; [11]", "result": 10.59, "unit": "mg/L"}, {"measurement": "yield of baccatin III", "setting": "[3]; [11]", "result": 2.29, "unit": "mg/L"}, {"measurement": "yield of cephalomannine", "setting": "[3]; [11]", "result": 3.83, "unit": "mg/L"}, {"measurement": "yield of taxol", "setting": "[3]; [11]", "result": 4.47, "unit": "mg/L"}, {"measurement": "growth rate", "setting": "[3]; [12]", "result": 2.9, "unit": "times"}, {"measurement": "total yield of taxane", "setting": "[3]; [12]", "result": 3.27, "unit": "mg/L"}, {"measurement": "yield of baccatin III", "setting": "[3]; [12]", "result": 0.28, "unit": "mg/L"}, {"measurement": "yield of cephalomannine", "setting": "[3]; [12]", "result": 1.44, "unit": "mg/L"}, {"measurement": "yield of taxol", "setting": "[3]; [12]", "result": 1.55, "unit": "mg/L"}, {"measurement": "growth rate", "setting": "[3]; [13]", "result": 2.7, "unit": "times"}, {"measurement": "total yield of taxane", "setting": "[3]; [13]", "result": 71.32, "unit": "mg/L"}, {"measurement": "yield of baccatin III", "setting": "[3]; [13]", "result": 25.14, "unit": "mg/L"}, {"measurement": "yield of cephalomannine", "setting": "[3]; [13]", "result": 12.57, "unit": "mg/L"}, {"measurement": "yield of taxol", "setting": "[3]; [13]", "result": 33.61, "unit": "mg/L"}, {"measurement": "growth rate", "setting": "[3]; [14]", "result": 2.7, "unit": "times"}, {"measurement": "total yield of taxane", "setting": "[3]; [14]", "result": 74.07, "unit": "mg/L"}, {"measurement": "yield of baccatin III", "setting": "[3]; [14]", "result": 27.00, "unit": "mg/L"}, {"measurement": "yield of cephalomannine", "setting": "[3]; [14]", "result": 12.34, "unit": "mg/L"}, {"measurement": "yield of taxol", "setting": "[3]; [14]", "result": 34.73, "unit": "mg/L"}, {"measurement": "growth rate", "setting": "[3]; [15]", "result": 2.7, "unit": "times"}, {"measurement": "total yield of taxane", "setting": "[3]; [15]", "result": 59.34, "unit": "mg/L"}, {"measurement": "yield of baccatin III", "setting": "[3]; [15]", "result": 22.81, "unit": "mg/L"}, {"measurement": "yield of cephalomannine", "setting": "[3]; [15]", "result": 9.08, "unit": "mg/L"}, {"measurement": "yield of taxol", "setting": "[3]; [15]", "result": 27.45, "unit": "mg/L"}, {"measurement": "growth rate", "setting": "[3]; [16]", "result": 2.7, "unit": "times"}, {"measurement": "total yield of taxane", "setting": "[3]; [16]", "result": 27.26, "unit": "mg/L"}, {"measurement": "yield of baccatin III", "setting": "[3]; [16]", "result": 7.62, "unit": "mg/L"}, {"measurement": "yield of cephalomannine", "setting": "[3]; [16]", "result": 5.11, "unit": "mg/L"}, {"measurement": "yield of taxol", "setting": "[3]; [16]", "result": 14.53, "unit": "mg/L"}, {"measurement": "growth rate", "setting": "[3]; [17]", "result": 2.7, "unit": "times"}, {"measurement": "total yield of taxane", "setting": "[3]; [17]", "result": 13.18, "unit": "mg/L"}, {"measurement": "yield of baccatin III", "setting": "[3]; [17]", "result": 1.13, "unit": "mg/L"}, {"measurement": "yield of cephalomannine", "setting": "[3]; [17]", "result": 4.10, "unit": "mg/L"}, {"measurement": "yield of taxol", "setting": "[3]; [17]", "result": 7.95, "unit": "mg/L"}, {"measurement": "growth rate", "setting": "[3]; [18]", "result": 2.6, "unit": "times"}, {"measurement": "total yield of taxane", "setting": "[3]; [18]", "result": 5.72, "unit": "mg/L"}, {"measurement": "yield of baccatin III", "setting": "[3]; [18]", "result": 1.06, "unit": "mg/L"}, {"measurement": "yield of cephalomannine", "setting": "[3]; [18]", "result": 2.86, "unit": "mg/L"}, {"measurement": "yield of taxol", "setting": "[3]; [18]", "result": 1.80, "unit": "mg/L"}, {"measurement": "growth rate", "setting": "[3]; [19]", "result": 2.7, "unit": "times"}, {"measurement": "total yield of taxane", "setting": "[3]; [19]", "result": 4.38, "unit": "mg/L"}, {"measurement": "yield of baccatin III", "setting": "[3]; [19]", "result": 0.34, "unit": "mg/L"}, {"measurement": "yield of cephalomannine", "setting": "[3]; [19]", "result": 2.47, "unit": "mg/L"}, {"measurement": "yield of taxol", "setting": "[3]; [19]", "result": 1.57, "unit": "mg/L"}, {"measurement": "growth rate", "setting": "[3]; [20]", "result": 2.8, "unit": "times"}, {"measurement": "total yield of taxane", "setting": "[3]; [20]", "result": 2.02, "unit": "mg/L"}, {"measurement": "yield of baccatin III", "setting": "[3]; [20]", "result": 0.29, "unit": "mg/L"}, {"measurement": "yield of cephalomannine", "setting": "[3]; [20]", "result": 0.97, "unit": "mg/L"}, {"measurement": "yield of taxol", "setting": "[3]; [20]", "result": 0.76, "unit": "mg/L"}, {"measurement": "growth rate", "setting": "[3]; [21]", "result": 2.7, "unit": "times"}, {"measurement": "total yield of taxane", "setting": "[3]; [21]", "result": 1.09, "unit": "mg/L"}, {"measurement": "yield of baccatin III", "setting": "[3]; [21]", "result": 0.20, "unit": "mg/L"}, {"measurement": "yield of cephalomannine", "setting": "[3]; [21]", "result": 0.56, "unit": "mg/L"}, {"measurement": "yield of taxol", "setting": "[3]; [21]", "result": 0.33, "unit": "mg/L"}]}
